Results reported in ChEMBL document CHEMBL5370599, “Discovery of a 53BP1 Small Molecule Antagonist Using a Focused DNA-Encoded Library Screen” (J Med Chem, 2023).

Assays:
TP53-binding protein 1 = TP53-binding protein 1 (Homo sapiens, UniProt Q12888); assay: Displacement of Biotin-p53K381acK382me2 from N-terminal his6-tagged 53BP1 (1484 to 1603 residues) (unknown origin) expressed in Rosetta2 BL21 (DE3) pLysS competent cells by TR-FRET assay; format: single protein
TERT-RPE1 = assay: Cytotoxicity against human RPE-1 cells assessed as reduction in cell viability measured upto 200 uM by celltiterglo 2.0 assay; format: toxicity, cell-based; details: tert-rpe1, 200 µM
HEK-293T = assay: Cytotoxicity against HEK293T cells assessed as reduction in cell viability measured upto 200 uM by celltiterglo 2.0 assay; format: toxicity, cell-based; details: human

Chain of TP53-binding protein 1 (Q12888 whole entry, the tested form may be a part): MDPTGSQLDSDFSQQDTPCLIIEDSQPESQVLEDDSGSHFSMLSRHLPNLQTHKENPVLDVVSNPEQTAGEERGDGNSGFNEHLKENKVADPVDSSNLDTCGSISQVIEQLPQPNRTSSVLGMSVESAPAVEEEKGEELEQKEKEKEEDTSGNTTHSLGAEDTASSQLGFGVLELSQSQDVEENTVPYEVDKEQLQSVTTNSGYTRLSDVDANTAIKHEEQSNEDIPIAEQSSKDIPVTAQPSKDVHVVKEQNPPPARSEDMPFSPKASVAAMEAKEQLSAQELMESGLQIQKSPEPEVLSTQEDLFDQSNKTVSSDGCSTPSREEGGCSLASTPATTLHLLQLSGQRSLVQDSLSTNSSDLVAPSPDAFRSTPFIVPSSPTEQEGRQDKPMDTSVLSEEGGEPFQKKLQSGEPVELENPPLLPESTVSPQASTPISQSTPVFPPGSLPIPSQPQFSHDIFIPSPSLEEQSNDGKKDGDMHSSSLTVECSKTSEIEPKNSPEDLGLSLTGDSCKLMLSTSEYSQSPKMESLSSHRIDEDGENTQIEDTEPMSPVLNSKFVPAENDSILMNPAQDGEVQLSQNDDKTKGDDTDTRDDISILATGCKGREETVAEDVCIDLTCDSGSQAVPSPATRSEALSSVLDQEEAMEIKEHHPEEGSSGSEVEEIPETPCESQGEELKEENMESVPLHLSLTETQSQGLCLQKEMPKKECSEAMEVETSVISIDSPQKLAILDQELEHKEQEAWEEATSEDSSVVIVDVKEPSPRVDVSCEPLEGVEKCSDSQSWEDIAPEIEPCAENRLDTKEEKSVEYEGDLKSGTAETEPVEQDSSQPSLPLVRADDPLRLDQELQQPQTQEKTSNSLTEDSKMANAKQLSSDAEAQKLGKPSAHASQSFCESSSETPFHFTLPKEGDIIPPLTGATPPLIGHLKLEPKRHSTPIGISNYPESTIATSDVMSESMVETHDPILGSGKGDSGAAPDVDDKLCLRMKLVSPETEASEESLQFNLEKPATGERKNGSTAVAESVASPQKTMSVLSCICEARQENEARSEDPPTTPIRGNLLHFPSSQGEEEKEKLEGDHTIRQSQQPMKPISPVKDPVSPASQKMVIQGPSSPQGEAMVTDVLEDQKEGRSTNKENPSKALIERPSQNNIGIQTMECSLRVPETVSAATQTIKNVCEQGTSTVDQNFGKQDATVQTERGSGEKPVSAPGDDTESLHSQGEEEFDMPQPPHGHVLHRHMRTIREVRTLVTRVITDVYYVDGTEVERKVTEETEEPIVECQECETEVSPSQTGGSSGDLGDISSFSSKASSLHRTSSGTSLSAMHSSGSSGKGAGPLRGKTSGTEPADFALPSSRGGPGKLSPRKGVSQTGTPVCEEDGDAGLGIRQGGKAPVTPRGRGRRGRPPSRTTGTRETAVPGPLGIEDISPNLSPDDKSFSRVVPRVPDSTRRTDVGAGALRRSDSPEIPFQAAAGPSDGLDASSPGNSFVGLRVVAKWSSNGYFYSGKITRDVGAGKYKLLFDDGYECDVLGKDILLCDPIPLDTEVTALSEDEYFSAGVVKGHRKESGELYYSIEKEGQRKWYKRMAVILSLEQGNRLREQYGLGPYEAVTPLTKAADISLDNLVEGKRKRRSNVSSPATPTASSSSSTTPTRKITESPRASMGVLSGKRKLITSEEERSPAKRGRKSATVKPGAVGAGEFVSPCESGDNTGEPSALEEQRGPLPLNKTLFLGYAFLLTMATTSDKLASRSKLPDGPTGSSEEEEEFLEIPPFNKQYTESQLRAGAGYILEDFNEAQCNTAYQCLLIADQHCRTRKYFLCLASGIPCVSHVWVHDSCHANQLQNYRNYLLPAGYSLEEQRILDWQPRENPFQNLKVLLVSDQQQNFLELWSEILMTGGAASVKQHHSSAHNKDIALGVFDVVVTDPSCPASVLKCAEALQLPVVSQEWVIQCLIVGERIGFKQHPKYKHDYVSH

In the case of `CN1CCN(c2ccnc(C(=O)N3CC[C@H](C(=O)Nc4cccc(-c5ccc(C(N)=O)cc5)c4)C3)c2)CC1`, the IC50 (TP53-binding protein 1) is reported as 2.2 µM.
In the case of `CN1CCN(c2ccnc(C(=O)N3CCC[C@H](C(=O)Nc4cccc(-c5ccc6c(c5)CCNC6)c4)C3)c2)CC1`, the IC50 (TP53-binding protein 1) is reported as 28 µM.
For `CN1CCN(c2ccnc(C(=O)N3CCC[C@H](C(=O)Nc4cc(-c5cccnc5)ncn4)C3)c2)CC1`, the IC50 (TP53-binding protein 1) was over 100 µM.
`CN1CCN(c2ccnc(C(=O)N3CCC[C@H](C(=O)Nc4cccc(-c5ccc6[nH]ncc6c5)c4)C3)c2)CC1` gave an IC50 (TP53-binding protein 1) of 15 µM.
Work on `CCN1CCN(c2ccnc(C(=O)N3CCC[C@H](C(=O)Nc4cccc(-c5ccc(C(N)=O)cc5)c4)C3)c2)CC1` yielded an IC50 (TP53-binding protein 1) of 1.4 µM.
For `CN1CCN(c2ccnc(C(=O)N3CCC[C@H](C(=O)Nc4cccc(-c5ccccn5)c4)C3)c2)CC1`, the IC50 (TP53-binding protein 1) was 18 µM.
For `COC(=O)c1cccc(-c2cccc(NC(=O)[C@H]3CCCN(C(=O)c4cc(N5CCN(C)CC5)ccn4)C3)c2)c1`, the IC50 (TP53-binding protein 1) was 10 µM.
`CN1CCN(c2ccnc(C(=O)N3CCC[C@H](C(=O)Nc4cccc(N5CCNCC5)c4)C3)c2)CC1` was tested, and the IC50 (TP53-binding protein 1) was 44 µM.
`CN1CCN(c2ccnc(C(=O)N3CCC[C@H](C(=O)Nc4cccc(N5CCOCC5)c4)C3)c2)CC1` was tested, and the IC50 (TP53-binding protein 1) was 32 µM.
In the case of `CN1CCN(c2ccnc(C(=O)N3CCC[C@H](C(=O)Nc4cccc(-c5ccc6c(c5)CNC6=O)c4)C3)c2)CC1`, the IC50 (TP53-binding protein 1) is reported as 3.4 µM.
Compound `CN1CCN(c2ccnc(C(=O)N3CC[C@H]3C(=O)Nc3cccc(-c4ccc(C(N)=O)cc4)c3)c2)CC1` has an IC50 (TP53-binding protein 1) of 5.7 µM.
`CN1CCN(c2ccnc(C(=O)N3CCC[C@H](C(=O)Nc4cccc(-c5ccccc5)c4)C3)c2)CC1` was tested, and the IC50 (TP53-binding protein 1) was 3.8 µM.
`CN1CCN(c2ccnc(C(=O)N3CCC[C@H](C(=O)Nc4cccc(-c5ccc6c(c5)CNC6)c4)C3)c2)CC1.Cl.Cl.Cl` was tested, and the Activity (TERT-RPE1) was “Non-Toxic” and the Activity (HEK-293T) was “Non-Toxic”.
`CCCN1CCN(c2ccnc(C(=O)N3CCC[C@H](C(=O)Nc4cccc(-c5ccc(C(N)=O)cc5)c4)C3)c2)CC1` gave an IC50 (TP53-binding protein 1) of 14 µM.
Work on `CN1CCN(c2ccnc(C(=O)N3CCC[C@H](C(=O)Nc4cccc(-c5ccc6c(c5)CCCN6)c4)C3)c2)CC1` yielded an IC50 (TP53-binding protein 1) of 12 µM.
`CN1CCN(c2ccnc(C(=O)N3CCC[C@@H]3C(=O)Nc3cccc(-c4ccc(C(N)=O)cc4)c3)c2)CC1` was tested, and the IC50 (TP53-binding protein 1) was 5 µM.
For `CN1CCN(c2ccnc(C(=O)N3CCC[C@H](C(=O)Nc4cncc(-c5ccccc5)c4)C3)c2)CC1`, the IC50 (TP53-binding protein 1) was 5.9 µM.
`CC(C)N1CCN(c2ccnc(C(=O)N3CCC[C@H](C(=O)Nc4cccc(-c5ccc(C(N)=O)cc5)c4)C3)c2)CC1` was tested, and the IC50 (TP53-binding protein 1) was 4.1 µM.
Compound `CN1CCN(c2ccnc(C(=O)N3CCC[C@H](C(=O)Nc4cccc(-c5ccccc5)n4)C3)c2)CC1` has an IC50 (TP53-binding protein 1) of 7.4 µM.
Work on `CN1CCN(c2cccc(C(=O)N3CCC[C@H](C(=O)Nc4cccc(-c5ccc(C(N)=O)cc5)c4)C3)c2)CC1` yielded an IC50 (TP53-binding protein 1) of 1.3 µM.
`CN1CCN(c2ccnc(C(=O)N3CCC[C@H](C(=O)Nc4cccc(-c5ccncc5)c4)C3)c2)CC1` was tested, and the IC50 (TP53-binding protein 1) was 6.6 µM.
In the case of `CN1CCN(c2ccnc(C(=O)N3CCC[C@H](C(=O)Nc4cccc(-c5ccc6[nH]cnc6c5)c4)C3)c2)CC1`, the IC50 (TP53-binding protein 1) is reported as 38 µM.
Work on `CN1CCN(c2ccnc(C(=O)N3CCC[C@H](C(=O)Nc4cccc(-c5cccc(C(=O)O)c5)c4)C3)c2)CC1` yielded an IC50 (TP53-binding protein 1) of 83 µM.
`CN1CCN(c2ccnc(C(=O)N3CCC[C@@H](C(=O)Nc4cccc(-c5ccc(C(N)=O)cc5)c4)C3)c2)CC1` showed an IC50 (TP53-binding protein 1) of 15 µM.
In the case of `CNC(=O)[C@H]1CCCN(C(=O)c2cc(N3CCN(C)CC3)ccn2)C1`, the IC50 (TP53-binding protein 1) is reported as over 100 µM.
For `CN1CCN(c2ccnc(C(=O)N3CCC[C@H](C(=O)Nc4cccc(-c5cccc(C(N)=O)c5)c4)C3)c2)CC1`, the IC50 (TP53-binding protein 1) was 1.9 µM.
For `CN1CCN(c2ccnc(C(=O)N3CCC[C@H](C(=O)Nc4cccc(-c5ccc6c(c5)CCN6)c4)C3)c2)CC1`, the IC50 (TP53-binding protein 1) was 7.8 µM.
In the case of `CNC(=O)c1cccc(-c2cccc(NC(=O)[C@H]3CCCN(C(=O)c4cc(N5CCN(C)CC5)ccn4)C3)c2)c1`, the IC50 (TP53-binding protein 1) is reported as 11 µM.
For `CNC(=O)c1ccc(-c2cccc(NC(=O)[C@H]3CCCN(C(=O)c4cc(N5CCN(C)CC5)ccn4)C3)c2)cc1`, the IC50 (TP53-binding protein 1) was 5.6 µM.
`CN1CCN(c2ccnc(C(=O)N3CCC[C@H](C(=O)Nc4ccccc4)C3)c2)CC1` was tested, and the IC50 (TP53-binding protein 1) was 22 µM.
`COC(=O)c1ccc(-c2cccc(NC(=O)[C@H]3CCCN(C(=O)c4cc(N5CCN(C)CC5)ccn4)C3)c2)cc1` was tested, and the IC50 (TP53-binding protein 1) was 10 µM.
In the case of `CN1CCN(c2ccnc(C(=O)N3CCC[C@H](C(=O)Nc4cccc(-c5ccc(C(=O)O)cc5)c4)C3)c2)CC1`, the IC50 (TP53-binding protein 1) is reported as 8.1 µM.
